The term IC50 denotes the point on the concentration scale where inhibition reaches its midpoint.

For test [1], the target named is c-Raf (Homo sapiens, UniProt P04049). Briefly: Luciferase-coupled chemiluminescence kinase assay (ATP consumption), c-Raf. The conditions noted are these: read-out: cRaf-1 (inhibition indicated as IC50). Format: biochemical. A digest of the protocol:
(§1)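 Pre-incub. kinase […] + cpd, 30 min RT (20 mM Tris pH 7.5, 10 mM MgCl2, 0.03% TX-100, 1 mM DTT). Start w/ ATP, 3 h ambient. Luciferase-luciferin mix added and luminescence read. Total ATP use 25-60%. IC50 derived.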

Test [2] addresses B-Raf (Homo sapiens, UniProt P15056). Briefly: Luciferase-coupled chemiluminescence kinase assay (ATP consumption), B-Raf. Format: biochemical. The conditions noted are these: read-out: bRaf (inhibition indicated as IC50). A digest of the protocol:
as §1

The structures appear in SMILES notation. Bounds are passed on as bounds.

Chain of B-Raf (P15056 whole entry): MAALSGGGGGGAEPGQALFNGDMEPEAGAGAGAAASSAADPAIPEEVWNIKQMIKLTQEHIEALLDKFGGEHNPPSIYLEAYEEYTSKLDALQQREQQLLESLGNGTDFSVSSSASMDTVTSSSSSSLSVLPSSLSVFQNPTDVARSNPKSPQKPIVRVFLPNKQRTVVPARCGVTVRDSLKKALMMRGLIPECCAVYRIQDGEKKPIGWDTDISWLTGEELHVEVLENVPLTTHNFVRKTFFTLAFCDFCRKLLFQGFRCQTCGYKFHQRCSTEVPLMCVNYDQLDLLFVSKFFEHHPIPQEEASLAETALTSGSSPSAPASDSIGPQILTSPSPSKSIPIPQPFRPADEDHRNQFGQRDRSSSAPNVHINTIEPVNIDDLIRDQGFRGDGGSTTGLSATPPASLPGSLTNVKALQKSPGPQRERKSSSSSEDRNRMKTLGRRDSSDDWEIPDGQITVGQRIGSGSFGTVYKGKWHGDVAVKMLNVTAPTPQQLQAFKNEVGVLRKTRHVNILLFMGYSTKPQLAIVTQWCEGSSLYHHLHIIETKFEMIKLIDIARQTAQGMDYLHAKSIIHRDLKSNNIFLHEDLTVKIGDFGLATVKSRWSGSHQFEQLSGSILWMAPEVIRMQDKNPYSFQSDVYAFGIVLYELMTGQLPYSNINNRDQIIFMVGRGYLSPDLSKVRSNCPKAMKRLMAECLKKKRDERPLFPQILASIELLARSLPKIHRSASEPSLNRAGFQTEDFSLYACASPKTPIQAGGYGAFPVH
Chain of c-Raf (P04049 whole entry): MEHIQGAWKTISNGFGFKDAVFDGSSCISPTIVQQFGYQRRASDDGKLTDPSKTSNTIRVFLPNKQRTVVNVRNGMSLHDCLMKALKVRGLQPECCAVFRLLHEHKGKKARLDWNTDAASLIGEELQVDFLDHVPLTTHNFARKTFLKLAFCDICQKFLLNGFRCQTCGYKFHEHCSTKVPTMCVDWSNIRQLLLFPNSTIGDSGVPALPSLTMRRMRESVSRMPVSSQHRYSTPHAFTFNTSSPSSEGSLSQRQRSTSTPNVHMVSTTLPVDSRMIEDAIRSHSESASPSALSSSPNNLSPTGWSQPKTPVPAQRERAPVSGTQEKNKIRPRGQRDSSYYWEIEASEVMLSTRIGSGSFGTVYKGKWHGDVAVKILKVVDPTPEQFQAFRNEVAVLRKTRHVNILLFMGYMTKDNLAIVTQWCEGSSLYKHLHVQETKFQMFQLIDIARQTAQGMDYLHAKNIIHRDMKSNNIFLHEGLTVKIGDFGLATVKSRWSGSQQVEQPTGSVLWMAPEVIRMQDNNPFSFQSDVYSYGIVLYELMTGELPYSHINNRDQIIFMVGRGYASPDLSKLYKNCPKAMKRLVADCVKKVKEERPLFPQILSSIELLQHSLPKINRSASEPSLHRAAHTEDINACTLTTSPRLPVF

As for `COCCOC(=O)Nc1nc2cc(C3(O)c4ccccc4C(=O)N3c3cccc(Cl)c3F)ccc2[nH]1` (stereo not shown) [Entry 336, 2-(methyloxy)ethyl {5-[2-(3-chloro-2-fluorophenyl)-1-hydroxy-3-oxo-2,3-dihydro-1H-isoindol-1-yl]-1H-benzimidazol-2-yl}carbamate], the IC50 in test [1] and in test [2] was less than 100 nM in each case.
Take `O=C(Nc1nc2ccc(C3(O)c4ccccc4C(=O)N3c3cccc(Cl)c3F)cc2[nH]1)OCC1CCCO1` (stereo not shown) [Entry 337, tetrahydrofuran-2-ylmethyl {6-[2-(3-chloro-2-fluorophenyl)-1-hydroxy-3-oxo-2,3-dihydro-1H-isoindol-1-yl]-1H-benzimidazol-2-yl}carbamate]: the IC50 in test [1] and in test [2] was less than 100 nM each time.
For the compound `O=C(Cc1cccs1)Nc1nc2cc(C3(O)c4ccccc4C(=O)N3c3cccc(Cl)c3F)ccc2[nH]1` (stereo not shown) [Entry 338, N-{5-[2-(3-chloro-2-fluorophenyl)-1-hydroxy-3-oxo-2,3-dihydro-1H-isoindol-1-yl]-1H-benzimidazol-2-yl}-2-(2-thienyl)acetamide], the IC50 in test [1] and in test [2] was less than 100 nM in each case.
On to `COC(=O)Nc1nc2ccc(C3(O)c4c(F)ccc(F)c4C(=O)N3c3cccc(Cl)c3F)cc2[nH]1` (stereo not shown) [Entry 339, methyl {6-[2-(3-chloro-2-fluorophenyl)-4,7-difluoro-1-hydroxy-3-oxo-2,3-dihydro-1H-isoindol-1-yl]-1H-benzimidazol-2-yl}carbamate], for which the IC50 in test [1] and in test [2] was less than 100 nM in each case.
For `CCOC(=O)Nc1nc2ccc(C3(O)c4ccccc4C(=O)N3c3cccc(Cl)c3F)cc2[nH]1` (stereo not shown) [Entry 340, ethyl {6-[2-(3-chloro-2-fluorophenyl)-1-hydroxy-3-oxo-2,3-dihydro-1H-isoindol-1-yl]-1H-benzimidazol-2-yl}carbamate], the IC50 in test [1] and in test [2] was less than 100 nM throughout.
With `O=C(Nc1nc2ccc(C3(O)c4ccccc4C(=O)N3c3cccc(Cl)c3F)cc2[nH]1)OCCF` (stereo not shown) [Entry 341, 2-fluoroethyl {6-[2-(3-chloro-2-fluorophenyl)-1-hydroxy-3-oxo-2,3-dihydro-1H-isoindol-1-yl]-1H-benzimidazol-2-yl}carbamate], the IC50 in test [1] and in test [2] was less than 100 nM in each case.
Take `COC(=O)Nc1nc2cc(C3(O)c4ccccc4C(=O)N3c3ccccc3Oc3ccccc3)ccc2[nH]1` (stereo not shown) [Entry 342, methyl (5-{1-hydroxy-3-oxo-2-[2-(phenyloxy)phenyl]-2,3-dihydro-1H-isoindol-1-yl}-1H-benzimidazol-2-yl)carbamate]: the IC50 in test [1] and in test [2] was 100 to 1000 nM each time.
`CCN(CC)C(=O)CCCC(=O)Nc1nc2cc(C3(O)c4ccccc4C(=O)N3c3cccc(Cl)c3F)ccc2[nH]1` (stereo not shown) [Entry 343, N′-{5-[2-(3-chloro-2-fluorophenyl)-1-hydroxy-3-oxo-2,3-dihydro-1H-isoindol-1-yl]-1H-benzimidazol-2-yl}-N,N-diethylpentanediamide]: the IC50 in test [1] and in test [2] was less than 100 nM throughout.
With `O=C(Nc1nc2ccc(C3(O)c4ccccc4C(=O)N3c3cccc(Cl)c3F)cc2[nH]1)OCC1CCC1` (stereo not shown) [Entry 344, cyclobutylmethyl {6-[2-(3-chloro-2-fluorophenyl)-1-hydroxy-3-oxo-2,3-dihydro-1H-isoindol-1-yl]-1H-benzimidazol-2-yl}carbamate], the IC50 in test [1] and in test [2] was less than 100 nM throughout.
As to `O=C(Nc1nc2ccc(C3(O)c4ccccc4C(=O)N3c3cccc(Cl)c3F)cc2[nH]1)OCC(F)(F)F` (stereo not shown) [Entry 345, 2,2,2-trifluoroethyl {6-[2-(3-chloro-2-fluorophenyl)-1-hydroxy-3-oxo-2,3-dihydro-1H-isoindol-1-yl]-1H-benzimidazol-2-yl}carbamate], the IC50 in test [1] and in test [2] was less than 100 nM throughout.
As to `COC(=O)Nc1nc2cc(C3(O)c4ccccc4C(=O)N3c3cccc(C(C)(C)C)c3)ccc2[nH]1` (stereo not shown) [Entry 346, methyl (5-{2-[3-(1,1-dimethylethyl)phenyl]-1-hydroxy-3-oxo-2,3-dihydro-1H-isoindol-1-yl}-1H-benzimidazol-2-yl)carbamate], the IC50 in test [1] and in test [2] was less than 100 nM throughout.
With `COC(=O)Nc1nc2ccc(C3(O)c4c(F)cccc4C(=O)N3c3cccc(Cl)c3F)cc2[nH]1` (stereo not shown) [Entry 347, methyl {6-[2-(3-chloro-2-fluorophenyl)-7-fluoro-1-hydroxy-3-oxo-2,3-dihydro-1H-isoindol-1-yl]-1H-benzimidazol-2-yl}carbamate], the IC50 in test [1] and in test [2] was less than 100 nM throughout.
For the compound `O=C1c2ccccc2C(O)(c2ccc3[nH]c(Nc4ccccc4)nc3c2)N1c1cccc(Cl)c1F` (stereo not shown) [Entry 348, 2-(3-chloro-2-fluorophenyl)-3-hydroxy-3-[2-(phenylamino)-1H-benzimidazol-5-yl]-2,3-dihydro-1H-isoindol-1-one], the IC50 in test [1] and in test [2] was 1000 to 10000 nM throughout.
`COC(=O)Nc1nc2ccc(C3(O)c4c(Cl)ccc(Cl)c4C(=O)N3c3cccc(Cl)c3F)cc2[nH]1` (stereo not shown) [Entry 349, methyl {6-[4,7-dichloro-2-(3-chloro-2-fluorophenyl)-1-hydroxy-3-oxo-2,3-dihydro-1H-isoindol-1-yl]-1H-benzimidazol-2-yl}carbamate]: the concentration for half-maximal inhibition (IC50) in test [1] and in test [2] was 1000 to 10000 nM throughout.
With `CCOC(=O)Nc1nc2cc(C(=O)c3ccccc3C(=O)OCc3ccccc3)ccc2o1` [Entry 350, phenylmethyl 2-[(2-{[(ethyloxy)carbonyl]amino}-1,3-benzoxazol-5-yl)carbonyl]benzoate], the IC50 in test [1] and in test [2] was 1000 to 10000 nM each time.
As to `C#Cc1cc(Cl)cc(N2C(=O)c3ccccc3C2(O)c2ccc3[nH]c(NC(=O)OC)nc3c2)c1C` (stereo not shown) [Entry 351, methyl {5-[2-(5-chloro-3-ethynyl-2-methylphenyl)-1-hydroxy-3-oxo-2,3-dihydro-1H-isoindol-1-yl]-1H-benzimidazol-2-yl}carbamate], the IC50 in test [1] was 100 to 1000 nM; in test [2], less than 100 nM.
As for `C#Cc1cc(N2C(=O)c3ccccc3C2(O)c2ccc3[nH]c(NC(=O)OC)nc3c2)c(F)cc1F` (stereo not shown) [Entry 352, methyl {5-[2-(5-ethynyl-2,4-difluorophenyl)-1-hydroxy-3-oxo-2,3-dihydro-1H-isoindol-1-yl]-1H-benzimidazol-2-yl}carbamate], the IC50 in test [1] and in test [2] was less than 100 nM in each case.
Take `C#Cc1c(F)ccc(N2C(=O)c3ccccc3C2(O)c2ccc3[nH]c(NC(=O)OC)nc3c2)c1F` (stereo not shown) [Entry 353, methyl {5-[2-(3-ethynyl-2,4-difluorophenyl)-1-hydroxy-3-oxo-2,3-dihydro-1H-isoindol-1-yl]-1H-benzimidazol-2-yl}carbamate]: the IC50 in test [1] and in test [2] was less than 100 nM in each case.
`O=C1c2ccccc2C(O)(c2ccc3[nH]c(Nc4ncccn4)nc3c2)N1c1cccc(Cl)c1F` (stereo not shown) [Entry 354, 2-(3-chloro-2-fluorophenyl)-3-hydroxy-3-[2-(pyrimidin-2-ylamino)-1H-benzimidazol-5-yl]-2,3-dihydro-1H-isoindol-1-one]: the IC50 in test [1] and in test [2] was less than 100 nM in each case.
`C#Cc1cccc(N2C(=O)c3c(F)ccc(F)c3C2(O)c2ccc3[nH]c(NC(=O)OC)nc3c2)c1F` (stereo not shown) [Entry 355, methyl {5-[2-(3-ethynyl-2-fluorophenyl)-4,7-difluoro-1-hydroxy-3-oxo-2,3-dihydro-1H-isoindol-1-yl]-1H-benzimidazol-2-yl}carbamate]: the IC50 in test [1] and in test [2] was less than 100 nM throughout.
`O=C1c2ccccc2C(O)(c2ccc3[nH]c(Nc4nccs4)nc3c2)N1c1cccc(Cl)c1F` (stereo not shown) [Entry 356, 2-(3-chloro-2-fluorophenyl)-3-hydroxy-3-[2-(1,3-thiazol-2-ylamino)-1H-benzimidazol-5-yl]-2,3-dihydro-1H-isoindol-1-one]: the IC50 in test [1] and in test [2] was less than 100 nM each time.
Consider `CCOC(=O)Nc1nc2cc(C3(O)c4ccccc4C(=O)N3c3cccc(Cl)c3F)ccc2o1` (stereo not shown) [Entry 357, ethyl {5-[2-(3-chloro-2-fluorophenyl)-1-hydroxy-3-oxo-2,3-dihydro-1H-isoindol-1-yl]-1,3-benzoxazol-2-yl}carbamate], for which the IC50 in test [1] is 100 to 1000 nM; in test [2], less than 100 nM.
For `COC(=O)Nc1nc2cc(C3(O)c4ccccc4C(=O)N3c3cc(Cl)cc(I)c3C)ccc2[nH]1` (stereo not shown) [Entry 358, methyl {5-[2-(5-chloro-3-iodo-2-methylphenyl)-1-hydroxy-3-oxo-2,3-dihydro-1H-isoindol-1-yl]-1H-benzimidazol-2-yl}carbamate] the same measures were 100 to 1000 nM and 100 to 1000 nM.
On the same counts, the results for `CCc1cccc(N2C(=O)c3ccccc3C2(O)c2ccc3[nH]c(NC(=O)OC)nc3c2)c1F` (stereo not shown) [Entry 359, methyl {5-[2-(3-ethyl-2-fluorophenyl)-1-hydroxy-3-oxo-2,3-dihydro-1H-isoindol-1-yl]-1H-benzimidazol-2-yl}carbamate] are less than 100 nM and less than 100 nM.
For `C#Cc1ccc(C)c(N2C(=O)c3ccccc3C2(O)c2ccc3[nH]c(NC(=O)OC)nc3c2)c1` (stereo not shown) [Entry 360, methyl {5-[2-(5-ethynyl-2-methylphenyl)-1-hydroxy-3-oxo-2,3-dihydro-1H-isoindol-1-yl]-1H-benzimidazol-2-yl}carbamate], the IC50 in test [1] and in test [2] was less than 100 nM in each case.
Regarding `O=C1c2ccccc2C(O)(c2ccc3[nH]c(Nc4cnccn4)nc3c2)N1c1cccc(Cl)c1F` (stereo not shown) [Entry 361, 2-(3-chloro-2-fluorophenyl)-3-hydroxy-3-[2-(pyrazin-2-ylamino)-1H-benzimidazol-5-yl]-2,3-dihydro-1H-isoindol-1-one], the IC50 in test [1] and in test [2] was less than 100 nM in each case.

The values are drawn from patent US7846959B2, “Raf modulators and methods of use” (Exelixis, Inc., priority 2004, dated 2010).
